Active and inactive are the calls of the source. No rule for the calls is given here. A value given as a limit tells only on which side of the number the result lay.

For the test, the target named is Mitogen-activated protein kinase kinase kinase 3 (Homo sapiens) (UniProt Q99759). Description: inhibitors of MEK5 binding to MEKK3, dose response, biochemical, bead multiplex flow cytometry, wildtype (AID 1896). The note with it: bead-based multiplex flow cytometry, MEK5-MEKK3 PB1 binding; for Ki: measured here: Ki from EC50.
Chain of Mitogen-activated protein kinase kinase kinase 3 (Homo sapiens) (Q99759 whole entry, looked up): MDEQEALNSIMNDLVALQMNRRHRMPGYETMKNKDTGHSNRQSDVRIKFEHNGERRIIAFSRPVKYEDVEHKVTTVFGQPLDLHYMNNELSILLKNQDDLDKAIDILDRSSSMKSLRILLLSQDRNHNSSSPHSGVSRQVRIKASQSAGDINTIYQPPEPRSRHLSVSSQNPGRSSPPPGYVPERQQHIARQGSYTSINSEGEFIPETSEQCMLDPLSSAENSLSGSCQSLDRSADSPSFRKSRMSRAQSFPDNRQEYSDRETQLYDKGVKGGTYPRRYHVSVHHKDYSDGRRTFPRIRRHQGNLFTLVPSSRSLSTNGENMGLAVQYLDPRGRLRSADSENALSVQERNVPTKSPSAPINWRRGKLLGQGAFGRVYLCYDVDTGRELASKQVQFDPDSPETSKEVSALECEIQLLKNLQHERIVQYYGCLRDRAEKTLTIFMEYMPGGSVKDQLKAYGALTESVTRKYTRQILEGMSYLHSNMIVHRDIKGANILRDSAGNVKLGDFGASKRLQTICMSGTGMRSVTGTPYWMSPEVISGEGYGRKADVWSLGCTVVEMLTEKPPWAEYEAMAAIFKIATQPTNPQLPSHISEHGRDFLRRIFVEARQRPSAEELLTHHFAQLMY

The EC50 is the concentration needed to bring the measured effect to its halfway point. Take `COC(=O)C1=C(C)N(Cc2ccccc2)C(=NCc2cccc(C(F)(F)F)c2)N[C@H]1c1cccc(F)c1`: the EC50 was > 30 µM (inactive).

For the compound `C#CCOCCOCCOCCNc1nc(N2CCN(C(=O)[C@H](Cc3cc4ccccc4[nH]3)n3cc([C@@H](N)C(C)CC)nn3)CC2)nc(N2CCN(C(=O)[C@H](CCCCN)n3cc([C@@H](N)CC(C)C)nn3)CC2)n1` (some centres undefined), the EC50 is > 30 µM (inactive).

On to `COc1cc(/C=N/NC(=O)c2cc3ccccc3cc2O)ccc1OCCN1CCCCC1`, for which the EC50 is > 30 µM (inactive).

`Cc1ccc(-n2cc(CNCCCn3ccnc3C)c(-c3ccc(F)cc3)n2)cc1`: the EC50 was > 30 µM (inactive).

Regarding `C#CCOCCOCCOCCNc1nc(N2CCN(C(=O)[C@H](CCC(=O)O)n3cc(C(N)CO)nn3)CC2)nc(N2CCN(C(=O)[C@H](Cc3cc4ccccc4[nH]3)n3cc(C(N)[C@H](C)CC)nn3)CC2)n1` (some centres undefined), the EC50 was > 30 µM (inactive).

In the case of `COc1cc(CNCCc2c[nH]c3ccccc23)ccc1OCc1ccccc1F`, the EC50 was > 30 µM (inactive).

For the compound `O=C(NNc1c2ccccc2nc2ccccc12)c1cc2ccccc2cc1O`, the EC50 is > 30 µM (inactive).

For `O=C(CCCC(=O)N(CC(=O)NC1CCCC1)C1CCCC1)Nc1ccccn1`, the EC50 was > 30 µM (inactive).

In the case of `COc1ccc(Cn2cc3c(-c4ccc(F)cc4)nnc-3c3cc(OC)c(OC)cc32)cc1`, the EC50 is > 30 µM (inactive).

Take `O=C(c1cc(COc2c(F)cccc2F)on1)N1C[C@H]2CC[C@H]1C2`: the EC50 is > 30 µM (inactive).

As to `CCN1CCN(CCNC(=O)c2ccc(/C=C3/Sc4ccccc4N(Cc4cccc(C)c4)C3=O)cc2)CC1`, the EC50 is > 30 µM (inactive).

A word on the Ki: it is the dissociation constant of the complex between target and ligand, obtained from inhibition or displacement. Higher therefore signals a looser hold on the target. Turning to `Nc1ccc(Nc2ccccc2N)cc1`, the EC50 is 21.1 µM and the Ki is 18.1 µM.

As to `CCN1CCN(Cc2ccc(NC(=O)c3cc(NC(=O)c4cnn(-c5ccccc5)c4N)cc(OC)c3)cc2C(F)(F)F)CC1`, the EC50 was > 30 µM (inactive).

Regarding `COc1cccc(OC)c1-c1nn2c(-c3cc(-c4ccccc4)n[nH]3)nnc2s1`, the EC50 was 5.37 µM and the Ki came to 4.59 µM.

As for `NC(=NCCCCCCN=C(N)/N=C(\N)Nc1ccc(Cl)cc1)/N=C(\N)Nc1ccc(Cl)cc1`, the EC50 was > 30 µM (inactive).

As for `Cc1cc2ccccc2n1CCNC(=O)c1cccs1`, the EC50 was > 30 µM (inactive).

For `N#CC(C#N)=c1ccc2c(c1)N1C(c3ccccc3)=CC(c3ccccc3)C3CCCCC31N=2` (centres undefined), the EC50 is 1.63 µM and the Ki was determined as 1.4 µM.

Regarding `CCN(CC)CCOC(=O)c1ccc(N/C=C(/C#N)c2nc(-c3cc4ccccc4oc3=O)cs2)cc1`, the EC50 is 3.81 µM and the Ki turned out to be 3.26 µM.

For `CCN1/C(=C/c2ccc3cc(C)ccc3[n+]2CC)Sc2cc(C)c(C)cc21`, the EC50 is 5.79 µM and the Ki was determined as 4.96 µM.

`CS(=O)(=O)N1N=C(c2ccccc2)CC1c1ccc2c(c1)OCO2` (centres undefined): the EC50 was > 30 µM (inactive).

Turning to `O=C(Nc1ccc(Cl)cn1)c1ccc2c(Cl)c3c(nc2c1)CCC3`, the EC50 is > 30 µM (inactive).

As for `COC(=O)c1c(C)oc(C)c1S(=O)(=O)N(Cc1ccccc1)C(C)C`, the EC50 was > 30 µM (inactive).

For the compound `CCCOc1ccc2c(c1)C(=NN=C(N)N)c1cc(OCCC)ccc1-2`, the EC50 was > 30 µM (inactive).

Take `CCN1CCN(Cc2ccc(NC(=O)c3cc(NC(=O)c4cncc(-c5cccs5)c4)cc(OC)c3)cc2C(F)(F)F)CC1`: the EC50 was > 30 µM (inactive).

In the case of `CCOc1ccc(C2=C/C(=C/c3cccnc3)C(=O)O2)cc1`, the EC50 was > 30 µM (inactive).

With `CCCCCCCCCC[N+](C)(C)CC/C=C1/c2ccccc2Sc2ccc(Cl)cc21`, the EC50 is > 30 µM (inactive).

Take `CN(C)CCCNc1cc(C(C)(C)C)nc2c(-c3ccc(Cl)cc3)cnn12`: the EC50 is > 30 µM (inactive).

On to `CCCCCCCCCCOC(=O)Cn1c(COc2ccc(C)cc2)[n+](C)c2ccccc21`, for which the EC50 is > 30 µM (inactive).

On to `CN1C(=O)/C(=C\c2ccc(-c3ccccc3)o2)SC1=S`, for which the EC50 was 10.2 µM and the Ki is 8.75 µM.

As for `C#CCOCCOCCOCCNc1nc(N2CCN(C(=O)[C@H](Cc3cc4ccccc4[nH]3)n3cc([C@@H](N)CC(C)C)nn3)CC2)nc(N2CCN(C(=O)[C@H](Cc3cc4ccccc4[nH]3)n3cc([C@@H](N)CC(C)C)nn3)CC2)n1`, the EC50 is > 30 µM (inactive).

Consider `CCCCCc1cc(=O)oc2c(C(CCN3CCCCC3)c3ccc4c(c3)OCO4)c(OC)cc(OC)c12` (centres undefined), for which the EC50 is > 30 µM (inactive).

As for `C#CCOCCOCCOCCNc1nc(N2CCN(C(=O)[C@H](Cc3cc4ccccc4[nH]3)n3cc([C@@H](N)C(C)CC)nn3)CC2)nc(N2CCN(C(=O)[C@H](Cc3cc4ccccc4[nH]3)n3cc([C@@H](N)CC(C)C)nn3)CC2)n1` (some centres undefined), the EC50 is > 30 µM (inactive).

With `CCOC(=O)c1c(C)n(-c2ccc(C)cc2)c2ccc(OCC(O)CN3CCN(C)CC3)cc12` (centres undefined), the EC50 is > 30 µM (inactive).

Regarding `CCOC(=O)C(C(=O)OCC)c1cc(Br)c2noc3c2c1C(=O)c1ccccc1-3`, the EC50 is > 30 µM (inactive).

Regarding `CN1C(=CC=C2C=C(I)C(=O)C(I)=C2)C(C)(C)c2ccccc21`, the EC50 is > 30 µM (inactive).

Take `O=C1c2ccccc2-c2onc3ccc(NCc4ccco4)c1c23`: the EC50 was > 30 µM (inactive).

As for `CCOC(=O)C1=C(c2ccccc2)NC(N)=NC1c1ccc(OCc2ccc(C(=O)OC)cc2)cc1` (centres undefined), the EC50 was > 30 µM (inactive).

In the case of `CCN(CC)CCOC(=O)c1ccc(N/C=C(/C#N)c2nc(-c3ccc(OC)cc3)cs2)cc1`, the EC50 was > 30 µM (inactive).

As to `CCCCCCCCCCOC(=O)Cn1c(COc2ccccc2)[n+](C)c2ccccc21`, the EC50 is > 30 µM (inactive).

With `CCN1CCN(Cc2ccc(NC(=O)c3ccc(C)c(NC(=O)C(=O)c4c[nH]c5ccccc45)c3)cc2C(F)(F)F)CC1`, the EC50 is > 30 µM (inactive).

For `CCN(CC)CCOC(=O)c1ccc(NC(=O)c2cn(-c3ccccc3)nc2-c2cccs2)cc1`, the EC50 is > 30 µM (inactive).

`COc1ccc(-c2cc(C#N)nc(N3CCNCC3)n2)cc1`: the EC50 is > 30 µM (inactive).

In the case of `CN(C)CCCn1c(SCC(=O)Nc2nc(-c3cccc(Br)c3)cs2)nc2ccccc2c1=O`, the EC50 was > 30 µM (inactive).

For the compound `COc1ccc(-n2nc3c(N)n[nH]c3cc2=O)cc1`, the EC50 is 1.13 µM and the Ki came to 0.97 µM.

For `COc1ccc2[nH]c3c(C)c4ccncc4c(C)c3c2c1`, the EC50 is > 30 µM (inactive).

With `COc1cc2nc(N3CCN(c4cc(C)ccc4C)CC3)nc(N)c2cc1OC`, the EC50 was > 30 µM (inactive).

Regarding `Cc1ccc(-c2c[n+](CC(=O)Nc3nc(-c4ccc(F)cc4)cs3)c3n2CCC3)cc1`, the EC50 is > 30 µM (inactive).

For `CCCCCc1cc(=O)oc2c(C(CCN3CCCC3)c3ccc(N(C)C)cc3)c(OC)cc(OC)c12` (centres undefined), the EC50 is > 30 µM (inactive).

`O=C1Nc2ccc(Br)cc2/C1=N/N=C/C1=C(N2CCOCC2)C(=C\c2ccccc2)/CC1`: the EC50 was 1.76 µM and the Ki is 1.5 µM.

As to `COc1ccc2nc(C)cc(N/N=C/c3ccc(F)cc3)c2c1`, the EC50 was 8.75 µM and the Ki is 7.49 µM.

Source of the values: PubChem BioAssay AID1896 (NMMLSC, 2009).
